Results from US11963533B2 (priority 2017, dated 2024).
Where two headings read alike, the source gives them in different places.

B1: CghSAMPa: stable antimicrobial peptide from Eremocitrus glauca x citrus sp., SEQ ID NO: 1, expressed and purified in E. coli (protein)
chain: MCCNRGKNVSIENLHQGFTHIFESTFESTEGVAEYVSHPSHVEYANLFLANLEKVLVIDYKPTTVRV
B2: CghSAMPb: stable antimicrobial peptide from Eremocitrus glauca x citrus sp., SEQ ID NO: 2, expressed and purified in E. coli (protein)
chain: MCCNRGKNVSIENLHQGFPHLFEFTFESTEGVAEYVSHPAHVEYANLFLANLEKVLVIDYKPTTVRV

Experiments:
sweet orange leaves = details: in vivo
[1] = test system: C. Lso (Ca. L. solanacearum); assay type: in vivo, Candidatus Liberibacter solanacearum
[2] = test system: C. Las (Candidatus Liberibacter asiaticus); assay type: in vivo; details: HLB-positive citrus plants, trunk delivery
[3] = test system: C. Lso (Ca. L. solanacearum); assay type: in vivo, Candidatus Liberibacter solanacearum; remark: listed apart in the source
Ca. L. solanacearum = assay type: in vivo, Candidatus Liberibacter solanacearum; details: 30 μM peptide by stem injection; for growth of infected plants compared to mock treatment: Ca. L. solanacearum-infected Nb plants, 3 weeks of treatment, FIG. 3A; for bacterial titer compared to plants treated with mock solution: Ca. L. solanacearum-infected plants, FIGS. 3B and 7

Molecule	cell death in leaves (sweet orange leaves)	time to complete digestion by pepsin (human protease pepsin) [min]	disease symptom ([1]; C. Lso-infected potato, FIG. 5)	yield of tuber production ([1]; C. Lso-infected potato, FIG. 5)	plant growth after C. Lso infection ([1]; potato plants pre-treated with SAMP 10 μM vs mock, exposed to C. Lso positive potato psyllids 5 days, 3 weeks post infection)	bacteria detected in the treated trees [2]	reduction of bacterial titer of treated trees ([2]; FIG. 4: 100 nM or 10 μM once, 5 weeks)	symptoms of new shoots and leaves from the treated trees ([2]; mock treated plants still have yellow patch symptoms)	disease symptom ([3]; C. Lso-infected tomato, FIG. 6)	plant growth after C. Lso infection ([3]; tomato plants pre-treated with SAMP vs mock, exposed to C. Lso positive potato psyllids 5 days, 4 weeks post infection)	growth of infected plants compared to mock treatment (Ca. L. solanacearum)	bacterial titer compared to plants treated with mock solution (Ca. L. solanacearum)
SAMP	No cell death	≤ 45	clearly inhibited	increased	grew better	No bacteria were detected	30-100 folds	no longer symptomatic	largely reduced	grew better		
B1											grow much better	much lower
B2											grow much better	much lower
